Tests used:
PBMC cells = assay: In vitro transfection of PBMC cells with EGFP mRNA LNP preparation (flow cytometry); type: cell-based; parameters: Cell Viability: concentration or dose not given beside the values; details: for Cell Viability / Positive Rate (EGFP): LNP preparation added with ApoE4; for Fluorescence Intensity: with ApoE4, EGFP mRNA expression level normalized based on the sample with the highest fluorescence intensity
Description: (§1) The description is based on peripheral blood mononuclear cells PBMC (Shanghai Oribiotech Co., Ltd.), human peripheral blood leukemia T cell Jurkat (ATCC), tumor infiltrating lymphocyte TIL (isolated from resected tumor tissue of a liver cancer patient, the preparation method refers to CN114763530A), mouse bone marrow-derived dendritic cells DC2.4 (Cell Bank of the Chinese Academy of Sciences), and Chinese hamster ovary cells CHO (ATCC) were used as verified cell lines for liposome transfection. PBMC, Jurkat, and TIL cells grew in suspension, while DC2.4 and CHO cells grew by adherent culture. All the operation steps of cell culture must strictly abide by the prescribed procedures, and sterile reagents is used to perform aseptic operations under a sterile workbench. The main steps are as follows: • 1) Cell recovery: the preserved cell cryopreservation solution was taken out of the −80° C. refrigerator, and was immediately put in a 37° C. water bath for rapid and continuous shaking, and was completely melted within one minute. Fresh medium was added to the 15 mL centrifuge tube in advance, and the cell solution was added to the centrifuge tube in a biological safety cabinet. A centrifuge tube of the same quality was taken and placed symmetrically in a centrifuge, centrifuged at a low speed at 1200 rpm for 5 min. After centrifugation, the supernatant was removed, and an appropriate amount of medium was slowly added along the tube wall. After the cells were evenly dispersed by blowing gently, the cell suspension was pipette and added to the culture bottle prepared in advance. The state and distribution of the cells in the early stage of recovery were observed under a microscope. The culture bottle was placed in a 5% CO2 incubator and incubated at 37° C., and the recovery time was recorded. • 2) Cell subculture: Under the microscope, if the cell density in the field of view reaches 80%-90%, the cells can be subcultured. Adherent cells need to be digested with trypsin. In order to avoid the residual serum in the culture medium to reduce the activity of trypsin, DPBS solution was added to wash once after removing the original culture medium. After remove the DPBS solution, trypsin was added to degrade the protein at the junction between cells. This separates the cells for further culture. The cells were gently shaked evenly and put into the incubator for digestion for 2 min. Immediately after the digestion was completed, an appropriate amount of medium was added to the original petri dish to terminate the digestion. Finally, the cells were carefully blowed off using a pipette and blowed until they are evenly dispersed, and then inoculated and subcultured at a certain ratio according to the experimental requirements.
• 1) Coating antibodies: 6-well plates were pre-coated, CD3 and CD28 antibodies were taken out from the −20° C. refrigerator, and melted for later use. The above two antibodies were added into the DPBS solution at a concentration of 5 µg/mL, mixed well, added into a six-well plate at 1 mL/well, put in a 37° C. incubator, and waited 4 hours for later use. • 2) PBMC recovery: the frozen PBMC cells were taken out from the −80° C. refrigerator, put in a 37° C. water bath to quickly thaw the cells, added to the preheated medium after thawing, centrifuged at 1200 rpm for 5 min, the supernatant was discarded, and an appropriate amount of AIMN-V medium with 500 U/ml IL-2 was added to resuspend PBMC. • 3) the DPBS coated with the antibody was removed with a pipette, the cell suspension was transferred to a six-well plate pre-coated with the antibody at 4 mL per well, placed in a 5% CO2 incubator at 37° C. for 3-5 days for activation and culture. • 4) According to the experimental arrangement, PBMC cells were plated on a 24-well plate 30 minutes in advance on the day of cell transfection. […]

[1] = In vitro stability test of LNP preparation stored at 4-8 °C; type: physicochemical; details: stored at 4-8° C. for 16 weeks; transfection tested on DC2.4
Procedure: The preparation from Example 2 was stored at 4° C.-8° C. Samples were taken every other week to test the transfection performance of the samples on DC2.4, the size of the nanoparticles and the polydispersity index PDI. The whole process lasted 16 weeks. […] Other LNP preparations were stored at 4-8° C. for 16 weeks, and the particle size, PDI, and cell transfection efficiency also maintained the initial state.

Jurkat cells = assay: In vitro transfection of Jurkat cells with EGFP mRNA LNP preparation; type: cell-based, human
Description: (§2) The description is based on peripheral blood mononuclear cells PBMC (Shanghai Oribiotech Co., Ltd.), human peripheral blood leukemia T cell Jurkat (ATCC), tumor infiltrating lymphocyte TIL (isolated from resected tumor tissue of a liver cancer patient, the preparation method refers to CN114763530A), mouse bone marrow-derived dendritic cells DC2.4 (Cell Bank of the Chinese Academy of Sciences), and Chinese hamster ovary cells CHO (ATCC) were used as verified cell lines for liposome transfection. PBMC, Jurkat, and TIL cells grew in suspension, while DC2.4 and CHO cells grew by adherent culture. All the operation steps of cell culture must strictly abide by the prescribed procedures, and sterile reagents is used to perform aseptic operations under a sterile workbench. The main steps are as follows: • 1) Cell recovery: the preserved cell cryopreservation solution was taken out of the −80° C. refrigerator, and was immediately put in a 37° C. water bath for rapid and continuous shaking, and was completely melted within one minute. […] The culture bottle was placed in a 5% CO2 incubator and incubated at 37° C., and the recovery time was recorded. • 2) Cell subculture: Under the microscope, if the cell density in the field of view reaches 80%-90%, the cells can be subcultured. […]

CHO cells = assay: In vitro transfection of CHO cells with EGFP mRNA LNP preparation; type: cell-based, Chinese hamster
Description: as §2

TIL cells = assay: In vitro transfection of TIL cells with EGFP mRNA LNP preparation; type: cell-based, human
Description: as §1, with “In order to avoid the residual serum in the culture medium to reduce the activity of trypsin, DPBS solution was added to wash once after removing the original culture medium. After remove the DPBS solution, trypsin was added to degrade the protein at the junction between cells. This separates the cells for further culture. The cells were gently shaked evenly and put into the incubator for digestion for 2 min. Immediately after the digestion was completed, an appropriate amount of medium was added to the original petri dish to terminate the digestion. Finally, the cells were carefully blowed off using a pipette and blowed until they are evenly dispersed, and then inoculated and subcultured at a certain ratio according to the experimental requirements.” left out

[2] = after in vitro transfection, ApoE4 did not affect viability

Structure (SMILES)	Cell Viability (PBMC cells; PBMCs)	Positive Rate (EGFP) (PBMC cells; PBMCs)	Fluorescence Intensity (PBMC cells; PBMCs)	also measured
CCCCCCCCCCC(O)CN(CCN1CCN(CCN(CCN(CC(O)CCCCCCCCCC)CC(O)CCCCCCCCCC)CCN(CC(O)CCCCCCCCCC)CC(O)CCCCCCCCCC)CC1)CC(O)CCCCCCCCCC (stereo not drawn) [A-C12]	89.70%	73.30%	0.72	–
CCCCCCCCCCCCC(O)CN(CCN1CCN(CCN(CCN(CC(O)CCCCCCCCCCCC)CC(O)CCCCCCCCCCCC)CCN(CC(O)CCCCCCCCCCCC)CC(O)CCCCCCCCCCCC)CC1)CC(O)CCCCCCCCCCCC (stereo not drawn) [A-C14]	91.20%	72.30%	0.76	–
CCCCCCCCCCCCCCC(O)CN(CCN1CCN(CCN(CCN(CC(O)CCCCCCCCCCCCCC)CC(O)CCCCCCCCCCCCCC)CCN(CC(O)CCCCCCCCCCCCCC)CC(O)CCCCCCCCCCCCCC)CC1)CC(O)CCCCCCCCCCCCCC (stereo not drawn) [A-C16]	90.00%	76.30%	0.81	–
CCCCCCCCCCCCCCCCC(O)CN(CCN1CCN(CCN(CCN(CC(O)CCCCCCCCCCCCCCCC)CC(O)CCCCCCCCCCCCCCCC)CCN(CC(O)CCCCCCCCCCCCCCCC)CC(O)CCCCCCCCCCCCCCCC)CC1)CC(O)CCCCCCCCCCCCCCCC (stereo not drawn) [A-C18]	85.00%	81.90%	0.87	–
CCCCCCCCCCC(O)CN(CCOCCN(CCOCCN(CC(O)CCCCCCCCCC)CC(O)CCCCCCCCCC)CCN1CCN(CCOCCN(CC(O)CCCCCCCCCC)CC(O)CCCCCCCCCC)CC1)CC(O)CCCCCCCCCC (stereo not drawn) [B-C12, 19-(2-(4-(2-(2-(di(2-hydroxydodecyl)amino)ethoxy)ethyl)piperazin-1-yl)ethyl)-13, 15-bis(2-hydroxydodecyl)-16,22-dioxa-13,19,25-triazaheptakadecane-11,27-diol]	85.00%	83.00%	0.81	–
CCCCCCCCCCCCC(O)CN(CCOCCN(CCOCCN(CC(O)CCCCCCCCCCCC)CC(O)CCCCCCCCCCCC)CCN1CCN(CCOCCN(CC(O)CCCCCCCCCCCC)CC(O)CCCCCCCCCCCC)CC1)CC(O)CCCCCCCCCCCC (stereo not drawn) [B-C14]	90.00%	85.50%	1	particle size, PDI and cell transfection efficiency on storage (FIG. 8) [1]: remained in the initial state; transfection efficiency (FIG. 2) (PBMC cells; PBMC, in the absence of AopE4): low transfection efficiency; transfection efficiency (FIG. 3) (PBMC cells; PBMC, with ApoE4): over 75%; change of transfection efficiency with ApoE4 (FIG. 3) (PBMC cells; PBMC, with ApoE4 versus without): increased; cell viability by flow cytometry (FIG. 1) (PBMC cells; PBMCs, after in vitro transfection, ApoE4 did not affect viability): high viability; cell viability by flow cytometry (FIG. 1) (Jurkat cells; [2]): high viability; transfection efficiency (FIG. 2) (Jurkat cells; in the absence of AopE4): high transfection efficiency; cell viability by flow cytometry (FIG. 1) (CHO cells; after in vitro transfection): high viability; transfection efficiency (FIG. 2) (CHO cells; in the absence of AopE4): high transfection efficiency; cell viability by flow cytometry (FIG. 1) (TIL cells; [2]): high viability; transfection efficiency (FIG. 2) (TIL cells; in the absence of AopE4): low transfection efficiency; change of transfection efficiency with ApoE4 (FIG. 3) (TIL cells; with ApoE4 versus without): increased
CCCCCCCCCCC(O)CN(CCOCCOCCN(CCOCCOCCN(CC(O)CCCCCCCCCC)CC(O)CCCCCCCCCC)CCN1CCN(CCOCCOCCN(CC(O)CCCCCCCCCC)CC(O)CCCCCCCCCC)CC1)CC(O)CCCCCCCCCC (stereo not drawn) [C-C12]	89.30%	56.50%	0.41	–
CCCCCCCCCCC(O)CN(CCOCCOCCOCCN(CCOCCOCCOCCN(CC(O)CCCCCCCCCC)CC(O)CCCCCCCCCC)CCN1CCN(CCOCCOCCOCCN(CC(O)CCCCCCCCCC)CC(O)CCCCCCCCCC)CC1)CC(O)CCCCCCCCCC [D-C12]	85.60%	65.60%	0.27	–
CCCCCCCCCCCCC(O)CN(CCOCCOCCOCCN(CCOCCOCCOCCN(CC(O)CCCCCCCCCCCC)CC(O)CCCCCCCCCCCC)CCN1CCN(CCOCCOCCOCCN(CC(O)CCCCCCCCCCCC)CC(O)CCCCCCCCCCCC)CC1)CC(O)CCCCCCCCCCCC [D-C14]	88.70%	96.70%	0.25	–
CCCCCCCCCCCCCCC(O)CN(CCOCCOCCOCCN(CCOCCOCCOCCN(CC(O)CCCCCCCCCCCCCC)CC(O)CCCCCCCCCCCCCC)CCN1CCN(CCOCCOCCOCCN(CC(O)CCCCCCCCCCCCCC)CC(O)CCCCCCCCCCCCCC)CC1)CC(O)CCCCCCCCCCCCCC [D-C16]	82.20%	71.70%	0.32	–
CCCCCCCCCCCCCCCCC(O)CC(CCOCCOCCOCCN(CCOCCOCCOCCN(CC(O)CCCCCCCCCCCCCCCC)CC(O)CCCCCCCCCCCCCCCC)CCN1CCN(CCOCCOCCOCCN(CC(O)CCCCCCCCCCCCCCCC)CC(O)CCCCCCCCCCCCCCCC)CC1)CC(O)CCCCCCCCCCCCCCCC [D-C18]	83.30%	64.40%	0.41	–
CCCCCCCCCCCCC(O)CN(CCN(CCN1CCN(C)CC1)CCN(CC(O)CCCCCCCCCCCC)CC(O)CCCCCCCCCCCC)CC(O)CCCCCCCCCCCC (stereo not drawn) [E-C14]	86.50%	64.60%	0.12	–
CCCCCCCCCCCCC(O)CN(CCOCCN(CCOCCN(CC(O)CCCCCCCCCCCC)CC(O)CCCCCCCCCCCC)CCN1CCN(C)CC1)CC(O)CCCCCCCCCCCC (stereo not drawn) [F-C14]	83.20%	63.70%	0.16	–
CCCCCCCCCCCCC(O)CN(CCOCCOCCN(CCOCCOCCN(CC(O)CCCCCCCCCCCC)CC(O)CCCCCCCCCCCC)CCN1CCN(C)CC1)CC(O)CCCCCCCCCCCC (stereo not drawn) [G-C14]	79.40%	63.40%	0.1	–
CCCCCCCCCCCCC(O)CN(CCOCCOCCOCCN(CCOCCOCCOCCN(CC(O)CCCCCCCCCCCC)CC(O)CCCCCCCCCCCC)CCN1CCN(C)CC1)CC(O)CCCCCCCCCCCC (stereo not drawn) [H-C14]	81.70%	62.10%	0.07	–

Source: patent publication US20250345277A1, “Ionizable Liposome, Preparation Thereof, and Application Thereof in Gene Delivery” (MAXIRNA (ZHEJIANG) TECHNOLOGY CO. LTD., priority 2021, published 2025)
